Experimental data reported in ChEMBL document CHEMBL5236598, “Lead Optimization and Avoidance of Metabolic-perturbing Motif Developing Novel Diarylpyrimidines as Potent HIV-1 NNRTIs” (J Med Chem, 2022).

Tests used:
[1] = system: Human immunodeficiency virus 1; assay: Antiviral activity against wild type HIV-1 IIIB infected in human MT4 cells assessed as protection against virus-induced cytopathic effect incubated for 5 days by MTT assay; assay type: functional, organism-based; settings: Human immunodeficiency virus 1, IIIB, MT4, 120 h
[2] = system: Human immunodeficiency virus 1; assay: Antiviral activity against HIV-1 RES056 harboring RT K103N/Y181C double mutant infected in human MT4 cells assessed as protection against virus-induced cytopathic effect incubated for 5 days by MTT assay; assay type: functional, organism-based; settings: Human immunodeficiency virus 1, RES056, MT4, 120 h
[3] = Cytotoxicity against human MT4 cells assessed as reduction in cell viability measured after 5 days by MTT assay; assay type: toxicity, cell-based; settings: time 5 day
[4] = Selectivity index, ratio of CC50 for cytotoxicity against human MT4 cells to EC50 for antiviral activity against wild type HIV-1 IIIB infected in human MT4 cells; assay type: toxicity, cell-based; settings: read-out: Ratio CC50/EC50
[5] = Selectivity index, ratio of CC50 for cytotoxicity against human MT4 cells to EC50 for antiviral activity against HIV-1 RES056 harboring RT K103N/Y181C double mutant infected in human MT4 cells; assay type: toxicity, cell-based; settings: read-out: Ratio CC50/EC50
[6] = system: Human immunodeficiency virus 1; assay: Antiviral activity against HIV-1 harboring RT L100I mutant infected in human MT4 cells assessed as protection against virus-induced cytopathic effect incubated for 5 days by MTT assay; assay type: functional, organism-based; settings: Human immunodeficiency virus 1, MT4, 120 h
[7] = system: Human immunodeficiency virus 1; assay: Antiviral activity against HIV-1 harboring RT K103N mutant infected in human MT4 cells assessed as protection against virus-induced cytopathic effect incubated for 5 days by MTT assay; assay type: functional, organism-based; settings: Human immunodeficiency virus 1, MT4, 120 h
[8] = system: Human immunodeficiency virus 1; assay: Antiviral activity against HIV-1 harboring RT Y181C mutant infected in human MT4 cells assessed as protection against virus-induced cytopathic effect incubated for 5 days by MTT assay; assay type: functional, organism-based; settings: Human immunodeficiency virus 1, MT4, 120 h
[9] = system: Human immunodeficiency virus 1; assay: Antiviral activity against HIV-1 harboring RT Y188L mutant infected in human MT4 cells assessed as protection against virus-induced cytopathic effect incubated for 5 days by MTT assay; assay type: functional, organism-based; settings: Human immunodeficiency virus 1, MT4, 120 h
[10] = system: Human immunodeficiency virus 1; assay: Antiviral activity against HIV-1 harboring RT E138K mutant infected in human MT4 cells assessed as protection against virus-induced cytopathic effect incubated for 5 days by MTT assay; assay type: functional, organism-based; settings: Human immunodeficiency virus 1, MT4, 120 h
[11] = system: Human immunodeficiency virus 1; assay: Antiviral activity against HIV-1 harboring RT F227L/V106A double mutant infected in human MT4 cells assessed as protection against virus-induced cytopathic effect incubated for 5 days by MTT assay; assay type: functional, organism-based; settings: Human immunodeficiency virus 1, MT4, 120 h
[12] = molecular target: Human immunodeficiency virus type 1 reverse transcriptase (Human immunodeficiency virus 1, UniProt Q72547); assay: Inhibition of wild type recombinant HIV-1 reverse transcriptase using biotin-labelled dNTPs as substrate assessed as inhibition of biotin-labelled UTP incorporation incubated for 1 hr by ELISA
[13] = Metabolic stability in human liver microsomes assessed as half life preincubated for 10 mins followed by NADPH regenerating system addition and measured after 2 hrs by LC-MS/MS analysis; assay type: ADME, Microsome; settings: time 130 min
[14] = Aqueous solubility of compound at pH 2 at 0.1 to 10 mg; assay type: physicochemical; settings: aqueous medium, dose 0.1-10 mg
[15] = Aqueous solubility of compound at pH 7 at 0.1 to 10 mg; assay type: physicochemical; settings: aqueous medium, dose 0.1-10 mg
[16] = Aqueous solubility of compound at pH 7.4 at 0.1 to 10 mg; assay type: physicochemical; settings: aqueous medium, dose 0.1-10 mg
[17] = Metabolic stability in human liver microsomes assessed as intrinsic clearance preincubated for 10 mins followed by NADPH regenerating system addition and measured after 2 hrs by LC-MS/MS analysis; assay type: ADME, Microsome; settings: time 130 min, read-out: CLH
[18] = Metabolic stability in human liver microsomes assessed as parent compound remaining preincubated for 10 mins followed by NADPH regenerating system addition and measured after 60 mins by LC-MS/MS analysis; assay type: ADME, Microsome; settings: time 70 min, read-out: Stability
[19] = Half life in ICR mouse at 2 mg/kg, iv measured for 12 hrs by LC-MS/MS analysis; assay type: ADME, organism-based; settings: in vivo
[20] = Half life in ICR mouse at 10 mg/kg, po measured for 12 hrs by LC-MS/MS analysis; assay type: ADME, organism-based; settings: in vivo
[21] = Tmax in ICR mouse at 2 mg/kg, iv measured for 12 hrs by LC-MS/MS analysis; assay type: ADME, organism-based; settings: in vivo
[22] = Tmax in ICR mouse at 10 mg/kg, po measured for 12 hrs by LC-MS/MS analysis; assay type: ADME, organism-based; settings: in vivo
[23] = Cmax in ICR mouse at 2 mg/kg, iv measured for 12 hrs by LC-MS/MS analysis; assay type: ADME, organism-based; design: time 12 hrs, dose 2 mg/kg, route iv; settings: in vivo
[24] = Cmax in ICR mouse at 10 mg/kg, po measured for 12 hrs by LC-MS/MS analysis; assay type: ADME, organism-based; design: time 12 hrs, dose 10 mg/kg, route po; settings: in vivo
[25] = AUC (0 to t) in ICR mouse at 2 mg/kg, iv measured for 12 hrs by LC-MS/MS analysis; assay type: ADME, organism-based; design: dose 2 mg/kg, time 12 hrs, route iv; settings: in vivo
[26] = AUC (0 to t) in ICR mouse at 10 mg/kg, po measured for 12 hrs by LC-MS/MS analysis; assay type: ADME, organism-based; design: dose 10 mg/kg, time 12 hrs, route po; settings: in vivo
[27] = AUC (0 to infinity) in ICR mouse at 2 mg/kg, iv measured for 12 hrs by LC-MS/MS analysis; assay type: ADME, organism-based; design: dose 2 mg/kg, time 12 hrs, route iv; settings: in vivo
[28] = AUC (0 to infinity) in ICR mouse at 10 mg/kg, po measured for 12 hrs by LC-MS/MS analysis; assay type: ADME, organism-based; design: time 12 hrs, dose 10 mg/kg, route po; settings: in vivo
[29] = Clearance in ICR mouse at 2 mg/kg, iv measured for 12 hrs by LC-MS/MS analysis; assay type: ADME, organism-based; settings: in vivo
[30] = Oral bioavailability in ICR mouse at 10 mg/kg measured for 12 hrs by LC-MS/MS analysis; assay type: ADME, organism-based; settings: in vivo
[31] = Acute toxicity in Kunming mouse assessed as abnormal behaviour at 2000 mg/kg, po administered for 7 days; assay type: organism-based; settings: in vivo, 168 h, time 7 day
[32] = Acute toxicity in Kunming mouse assessed as change in body weight at 2000 mg/kg, po administered for 7 days; assay type: organism-based; settings: in vivo, 168 h, time 7 day
[33] = Subacute toxicity in Kunming mouse assessed as signs of toxicity at 50 mg/kg/day, po administered for 2 weeks; assay type: organism-based; settings: in vivo, 336 h
[34] = Subacute toxicity in Kunming mouse assessed as lethargy at 50 mg/kg/day, po administered for 2 weeks; assay type: organism-based; settings: in vivo, 336 h
[35] = Subacute toxicity in Kunming mouse assessed as clonic convulsion at 50 mg/kg/day, po administered for 2 weeks; assay type: organism-based; settings: in vivo, 336 h
[36] = Subacute toxicity in Kunming mouse assessed as anorexia at 50 mg/kg/day, po administered for 2 weeks; assay type: organism-based; settings: in vivo, 336 h
[37] = Subacute toxicity in Kunming mouse assessed as ruffled fur at 50 mg/kg/day, po administered for 2 weeks; assay type: organism-based; settings: in vivo, 336 h
[38] = Subacute toxicity in Kunming mouse assessed as abnormalities in heart at 50 mg/kg/day, po administered for 2 weeks; assay type: organism-based; settings: in vivo, 336 h
[39] = Subacute toxicity in Kunming mouse assessed as abnormalities in liver at 50 mg/kg/day, po administered for 2 weeks; assay type: organism-based; settings: in vivo, 336 h
[40] = Subacute toxicity in Kunming mouse assessed as abnormalities in spleen at 50 mg/kg/day, po administered for 2 weeks; assay type: organism-based; settings: in vivo, 336 h
[41] = Subacute toxicity in Kunming mouse assessed as abnormalities in lungs at 50 mg/kg/day, po administered for 2 weeks; assay type: organism-based; settings: in vivo, 336 h
[42] = Subacute toxicity in Kunming mouse assessed as abnormalities in kidneys at 50 mg/kg/day, po administered for 2 weeks; assay type: organism-based; settings: in vivo, 336 h
[43] = Subacute toxicity in Kunming mouse assessed as appearance of lesions in heart at 50 mg/kg/day, po administered for 2 weeks; assay type: organism-based; settings: in vivo, 336 h
[44] = Subacute toxicity in Kunming mouse assessed as appearance of lesions in liver at 50 mg/kg/day, po administered for 2 weeks; assay type: organism-based; settings: in vivo, 336 h
[45] = Subacute toxicity in Kunming mouse assessed as appearance of lesions in spleen at 50 mg/kg/day, po administered for 2 weeks; assay type: organism-based; settings: in vivo, 336 h
[46] = Subacute toxicity in Kunming mouse assessed as appearance of lesions in lungs at 50 mg/kg/day, po administered for 2 weeks; assay type: organism-based; settings: in vivo, 336 h
[47] = Subacute toxicity in Kunming mouse assessed as appearance of lesions in kidneys at 50 mg/kg/day, po administered for 2 weeks; assay type: organism-based; settings: in vivo, 336 h

SMILES: N#C/C=C/c1cc(F)c(Oc2nc(Nc3ccc(C#N)c(F)c3)nc3c2COC3)c(F)c1
- EC50 [1]: 1.67 nM
- EC50 [2]: 314 nM
- CC50 at 120 h [3]: 243000 nM
- selectivity ratio [4]: 145000
- selectivity ratio [5]: 773
- EC50 [6]: 6.9 nM
- EC50 [7]: 2.41 nM
- EC50 [8]: 13.9 nM
- EC50 [9]: 214 nM
- EC50 [10]: 3.45 nM
- EC50 [11]: 384 nM
- IC50 [12]: 30 nM

SMILES: C[C@]12CC[C@H]3[C@@H](CCC4=CC(=O)CC[C@@]43C)[C@@H]1CC[C@@H]2O [TESTOSTERONE]
- half-life [13]: 11.1 min

SMILES: Cc1cc(/C=C/C#N)cc(C)c1Oc1nc(Nc2ccc(C#N)c(F)c2)nc2c1COC2.Cl
- solubility [14]: 349 µg/mL
- solubility [15]: 149 µg/mL
- solubility [16]: 38.9 µg/mL
- half-life [13]: 11.3 min
- microsomal CLint [17]: 87.6 µL/min/mg
- remaining at 1 h [18]: 5%
- half-life [19]: 85.8 min
- half-life [20]: 307 min
- Tmax [21]: 0 h
- Tmax [22]: 15 min
- Cmax [23]: 484 ng/mL
- Cmax [24]: 37.5 ng/mL
- AUC(0-t) at 12 h [25]: 250 ng·h/mL
- AUC(0-t) at 12 h [26]: 107 ng·h/mL
- AUC [27]: 255 ng·h/mL
- AUC(0-inf) [28]: 154 ng·h/mL
- CL [29]: 1720 mL/min/kg
- bioavailability [30]: 12.1%
- Activity [31]: Non-Toxic
- Activity [32]: Non-Toxic
- Activity [33]: Non-Toxic
- Activity [34]: Non-Toxic
- Activity [35]: Non-Toxic
- Activity [36]: Non-Toxic
- Activity [37]: Non-Toxic
- Activity [38]: Non-Toxic
- Activity [39]: Non-Toxic
- Activity [40]: Non-Toxic
- Activity [41]: Non-Toxic
- Activity [42]: Non-Toxic
- Activity [43]: Non-Toxic
- Activity [44]: Non-Toxic
- Activity [45]: Non-Toxic
- Activity [46]: Non-Toxic
- Activity [47]: Non-Toxic

SMILES: Cc1cc(C#N)cc(C)c1Oc1nc(Nc2ccc(C#N)cc2)nc(N)c1Br [ETRAVIRINE]
- EC50 [1]: 3.3 nM
- EC50 [2]: 76.2 nM
- CC50 at 120 h [3]: > 4610 nM
- EC50 [7]: 4.3 nM
- EC50 [9]: 25.1 nM
- EC50 [10]: 18.1 nM
- EC50 [11]: 25.4 nM
